Data as given in patent US7928143B2, “Method for preventing and/or treating neurodegenerative diseases” (Ono Pharmaceutical Co., Ltd., priority 2003, dated 2011).

Assays:
Format in all cases: in vivo, human
[1] = test system: patients with cerebral infarction at the acute phase (within 72 hours after onset of the disease); assay: Clinical test Example 1: randomization test at two doses, efficacy by Rankin Scale and Glasgow Outcome Scale; details: 4 mg/kg/h vs 0.4 mg/kg/h group, 1 h continuous i.v. once a day for 7 days, cases with JSS≦15 before administration, three months after commencement of administration
Protocol: (§1) As a clinical test, a randomization test was carried out on patients with cerebral infarction at the acute phase (within 72 hours after onset of the disease), at two doses under the following conditions. • Object: 97 patients in the acute phase cerebral infarction. • Administration method and dosage: 1 hour of continuous intravenous administration once a day in each group; • (1) (2R)-2-propyloctanoic acid: 0.4 mg/kg/h; • (2) (2R)-2-propyloctanoic acid: 4 mg/kg/h. • Administration period: 7 days • The Number of Cases: • (1) (2R)-2-propyloctanoic acid 0.4 mg/kg/h administered group: 51 patients; • (2) (2R)-2-propyloctanoic acid 4 mg/kg/h administered group: 46 patients. Evaluation Items: Main Evaluation Items <Efficacy Evaluation Items> (1) Rankin Scale (RS)
Evaluation method: Symptoms of patients were scored by classifying them into the following grades of Table 1.
(2) Glasgow Outcome Scale (GOS)
Evaluation method: Symptoms of patients were scored by classifying them into the following grades of Table 2.
(§2) <Safety Evaluation Item> • Frequency of adverse matters and the contents thereof (symptoms, causal relation and the like): • Analysis: Therapeutic effects by continuous intravenous administration of (2R)-2-propyloctanoic acid were evaluated based on the above main evaluation items. • Results: The results are shown below. <Efficacy Evaluation Item>

[2] = test system: patients with cerebral infarction at the acute phase (within 24 hours after onset of the disease); assay: Clinical test Example 2: double blind placebo-controlled test, efficacy by modified Rankin Scale; details: 8 mg/kg/h administration group, 1 h continuous i.v. once a day for 7 days; 40 days after commencement of administration; statistically significant vs placebo (32.5%)
Protocol: (§3) As a clinical test, a double blind test was carried out using patients with cerebral infarction at the acute phase (within 24 hours after onset of the disease) under the following conditions by (2R)-2-propyloctanoic acid administration groups (6 varied doses) and a placebo administration group. • Object: 92 patients in the acute phase cerebral infarction. • Administration method and dosage: 1 hour of continuous intravenous administration once a day in each group; • (1) (2R)-2-propyloctanoic acid: 2 mg/kg/h; • (2) (2R)-2-propyloctanoic acid: 4 mg/kg/h; • (3) (2R)-2-propyloctanoic acid: 6 mg/kg/h; • (4) (2R)-2-propyloctanoic acid: 8 mg/kg/h; • (5) (2R)-2-propyloctanoic acid: 10 mg/kg/h; • (6) (2R)-2-propyloctanoic acid: 12 mg/kg/h; • (7) placebo. • Administration period: 7 days • The Number of Cases: • (1) (2R)-2-propyloctanoic acid 2 mg/kg/h administered group: 9 patients; • (2) (2R)-2-propyloctanoic acid 4 mg/kg/h administered group: 8 patients; • (3) (2R)-2-propyloctanoic acid 6 mg/kg/h administered group: 8 patients; • (4) (2R)-2-propyloctanoic acid 8 mg/kg/h administered group: 8 patients; • (5) (2R)-2-propyloctanoic acid 10 mg/kg/h administered group: 8 patients; • (6) (2R)-2-propyloctanoic acid 12 mg/kg/h administered group: 8 patients; • (7) placebo administered group: 43 patients. […]

[3] = test system: patients with cerebral infarction at the acute phase (within 72 hours after onset of the disease); assay: Clinical test Example 1: safety evaluation (frequency of adverse matters and contents); details: i.v. 7 days, causal relation to the test drug was denied
Protocol: as §1, §2

serum S-100β = assay: Clinical test Example 2: serum S-100β content (SMART S100 ELISA Kit); details: administered groups (2 to 12 mg/kg/h, i.v. 7 days) in comparison with placebo group; particularly remarkable on and after 3 days; FIG. 3
Protocol: as §3

[4] = test system: patients with cerebral infarction at the acute phase (within 24 hours after onset of the disease); assay: Clinical test Example 2: safety evaluation (adverse matters and clinical test values); details: administration group (2 to 12 mg/kg/h, i.v. 7 days)
Protocol: As a clinical test, a double blind test was carried out using patients with cerebral infarction at the acute phase (within 24 hours after onset of the disease) under the following conditions by (2R)-2-propyloctanoic acid administration groups (6 varied doses) and a placebo administration group. • Object: 92 patients in the acute phase cerebral infarction. • Administration method and dosage: 1 hour of continuous intravenous administration once a day in each group; • (1) (2R)-2-propyloctanoic acid: 2 mg/kg/h; • (2) (2R)-2-propyloctanoic acid: 4 mg/kg/h; • (3) (2R)-2-propyloctanoic acid: 6 mg/kg/h; • (4) (2R)-2-propyloctanoic acid: 8 mg/kg/h; • (5) (2R)-2-propyloctanoic acid: 10 mg/kg/h; • (6) (2R)-2-propyloctanoic acid: 12 mg/kg/h; • (7) placebo. • Administration period: 7 days • The Number of Cases: • (1) (2R)-2-propyloctanoic acid 2 mg/kg/h administered group: 9 patients; • (2) (2R)-2-propyloctanoic acid 4 mg/kg/h administered group: 8 patients; • (3) (2R)-2-propyloctanoic acid 6 mg/kg/h administered group: 8 patients; • (4) (2R)-2-propyloctanoic acid 8 mg/kg/h administered group: 8 patients; • (5) (2R)-2-propyloctanoic acid 10 mg/kg/h administered group: 8 patients; • (6) (2R)-2-propyloctanoic acid 12 mg/kg/h administered group: 8 patients; • (7) placebo administered group: 43 patients. Evaluation Items: Main Evaluation Items <Efficacy Evaluation Items> (1) Modified Rankin Scale (mRS)
Adverse Matters and Clinical Test Values
• Analysis: Therapeutic effects by continuous intravenous administration of (2R)-2-propyloctanoic acid was evaluated based on the above main evaluation items. • Results: The results are shown below. <Efficacy Evaluation Item>

## CCCCCC[C@@H](CCC)C(=O)O [(2R)-2-propyloctanoic acid]
[1]; FIG. 1
  ratio of occupying the category of improvement by RS (Rankin Scale): statistically significant differences were found
[1]; FIG. 2
  ratio of occupying the category of improvement by GOS (Glasgow Outcome Scale): statistically significant differences were found
[2]
  ratio occupied by a score of 2 or less (category of good improvement) on modified Rankin Scale (mRS): 87.5%
[3]; 0.4 mg/kg/h administration group
  cases of death: 3 cases
[3]; 4 mg/kg/h administration group
  cases of death: 4 cases
Serum S-100β
  serum S-100β content during the administration period: tendency of inhibiting increase of the serum S-100β content
[4]; causal relation to the test drug was denied, placebo 12 cases
  Serious adverse matters: 10 cases
[4]; placebo 39.5%, no difference
  Frequency of the adverse matters (side effects) whose causal relation to the test drug was not denied: 42.9%
[4]; placebo 100%, no difference
  Frequency of the adverse matters: 98%
